# Reference: US4433154A, “Bis(carboxamide) derivatives” (Shionogi & Company, Limited, priority 1981, dated 1984)
# Target: T1, histamine H2 receptor (Cavia porcellus, UniProt P47747)
# T1 construct: enucleated atrium of a guinea pig; from tissue; host or cells: guinea pig atrium
# Assay: Histamine H2-blocking effect in enucleated guinea pig atrium (inhibition of histamine-increased pulse)
# Format: cell-based
# Details: in vitro; enucleated guinea pig atrium pretreated with drug; negative logarithm of antagonist dose shifting histamine dose-response curve corresponding to doubling of histamine concentration; read-out: pA2 (converted)
# Source text: In the table 10, the symbol pA2 indicates the degree of pulse inhibition of the compounds (I) in the present invention in the enucleated atrium of a guinea pig. The assigned number of compounds in the table conforms to the number of the examples.
# (Note) PA2 is an in vitro indicator of histamine H2 -blocking effect. […] The result was shown by negative logarithms of the dose of antagonist which is required to shift the dose-response curve of histamine in parallel to the side corresponding to a doubling of the concentration of histamine [Ariens, Molecular Pharmacology, vol./, Academic Press, New York (1964)].
# T1 sequence (P47747 whole entry): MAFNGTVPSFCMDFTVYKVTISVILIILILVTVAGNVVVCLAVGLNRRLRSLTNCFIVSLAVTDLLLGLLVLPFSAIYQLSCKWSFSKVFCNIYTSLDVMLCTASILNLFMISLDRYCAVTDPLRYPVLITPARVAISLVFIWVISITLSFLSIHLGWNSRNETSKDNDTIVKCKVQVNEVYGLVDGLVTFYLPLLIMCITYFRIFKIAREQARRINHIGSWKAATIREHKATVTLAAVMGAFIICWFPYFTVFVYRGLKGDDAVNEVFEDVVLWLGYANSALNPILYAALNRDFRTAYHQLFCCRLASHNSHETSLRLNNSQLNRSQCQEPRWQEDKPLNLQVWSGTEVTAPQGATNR
row,Kb [nM],Compound
1,204,O=C(NCCCOc1cccc(CN2CCCC2)c1)c1ccc(C(=O)NCCCOc2cccc(CN3CCCC3)c2)cc1 [Example 11]
2,66.1,"O=C(CSCC(=O)NCCCOc1cccc(CN2CCCC2)c1)NCCCOc1cccc(CN2CCCC2)c1 [Example 12, N,N'-bis{3-[3-(1-pyrrolidinylmethyl)phenoxy]propyl}thiodiglycoldamide]"
3,60.3,O=C(NCCCOc1cccc(CN2CCCC2)c1)c1cccc(C(=O)NCCCOc2cccc(CN3CCCC3)c2)c1 [Example 14]
4,53.7,"O=C(/C=C/C(=O)NCCCOc1cccc(CN2CCCC2)c1)NCCCOc1cccc(CN2CCCC2)c1 [Example 10, N,N'-bis{3-[3-(1-pyrrolidinylmethyl)phenoxy]propyl}fumaramide]"
